Experimental data taken from US7745463B2, “Alkene piperidine derivatives as antiviral agents” (priority 2006, dated 2010).

Test system: HIV-1 single-round infectious reporter virus
Test: Single-round infectious HIV-1 reporter virus (luciferase) infection of HeLa CD4 cells
Assay type: cell-based
Conditions: Human immunodeficiency virus 1, HeLa, 72 h, read-out: EC50 Group from Table 1
Description: • Virus production—Human embryonic Kidney cell line, 293T, was propagated in Dulbecco's Modified Eagle Medium (Invitrogen, Carlsbad, Calif.) containing 10% fetal Bovine serum (FBS, Sigma, St. Louis, Mo.). • Virus infection-Human epithelial cell line, HeLa, expressing the HIV-1 receptor CD4 was propagated in Dulbecco's Modified Eagle Medium (Invitrogen, Carlsbad, Calif.) containing 10% fetal Bovine serum (FBS, Sigma, St. Louis, Mo.) and supplemented with 0.2 mg/mL Geneticin (Invitrogen, Carlsbad, Calif.). • Virus-Single-round infectious reporter virus was produced by co-transfecting human embryonic Kidney 293 cells with an HIV-1 envelope DNA expression vector and a proviral cDNA containing an envelope deletion mutation and the luciferase reporter gene inserted in place of HIV-1 nef sequences (Chen et al, Ref. 41). Transfections were performed using lipofectAMINE PLUS reagent as described by the manufacturer (Invitrogen, Carlsbad, Calif.). Experiment: • HeLa CD4 cells were plated in 96 well plates at a cell density of 1×10^4 cells per well in 100 μl Dulbecco's Modified Eagle Medium containing 10% fetal Bovine serum and incubated overnight. • Compound was added in a 2 μl dimethylsulfoxide solution, so that the final assay concentration would be ≦10 μM. • 100 μl of single-round infectious reporter virus in Dulbecco's Modified Eagle Medium was then added to the plated cells and compound at an approximate multiplicity of infection (MOI) of 0.01, resulting in a final volume of 200 μl per well. • Virally-infected cells were incubated at 37 degrees Celsius, in a CO2 incubator, and harvested 72 h after infection. • Viral infection was monitored by measuring luciferase expression from viral DNA in the infected cells using a luciferase reporter gene assay kit, as described by the manufacturer (Roche Molecular Biochemicals, Indianapolis, Ind.). Infected cell supernatants were removed and 50 μl of lysis buffer was added per well. After 15 minutes, 50 μl of freshly-reconstituted luciferase assay reagent was added per well. Luciferase activity was then quantified by measuring luminescence using a Wallac microbeta scintillation counter. • The percent inhibition for each compound was calculated by quantifying the level of luciferase expression in cells infected in the presence of each compound as a percentage of that observed for cells infected in the absence of compound and subtracting such a determined value from 100. • An EC50 provides a method for comparing the antiviral potency of the compounds of this disclosure. The effective concentration for fifty percent inhibition (EC50) was calculated with the Microsoft Excel Xlfit curve fitting software. For each compound, curves were generated from percent inhibition calculated at 10 different concentrations by using a four paramenter logistic model (model 205). Table 1 is the key for the data in Table 2.

Compound	EC50 [nM]
CC(Oc1cccc2ncccc12)C(=O)N1CCC(=C(C#N)c2ccccc2)CC1 (centres unmarked)	< 1000
CC(Oc1cccc2ncccc12)C(=O)N1CCC(=C(C#N)c2ccccc2)CC1C (centres unmarked)	< 1000
CC(Oc1cccc2ncccc12)C(=O)N1CCC(=C(c2ccccc2)c2ccccc2)CC1 (centres unmarked)	> 1000
CC(Oc1cccc2ncccc12)C(=O)N1CCC(=C(c2ccccc2)c2cccnc2)CC1 (centres unmarked)	> 1000
Cc1nnc(C(=C2CCN(C(=O)C(C)Oc3cccc4ncccc34)CC2)c2ccccc2)o1 (centres unmarked)	> 1000
COC(=O)c1ccc(OC(C)C(=O)N2CCC(=C(C#N)c3ccccc3)CC2)c(OC)c1 (centres unmarked)	< 1000
COC(=O)c1ccc(OC(C)C(=O)N2CCC(=C(C#N)c3ccccc3)CC2C)c(OC)c1 (centres unmarked)	< 1000
COC(=O)c1ccc(OC(C)C(=O)N2CCC(=C(c3ccccc3)c3ccccc3)CC2)c(OC)c1 (centres unmarked)	< 1000
COC(=O)c1ccc(OC(C)C(=O)N2CCC(=C(c3ccccc3)c3cccnc3)CC2)c(OC)c1 (centres unmarked)	> 1000
COC(=O)c1ccc(OC(C)C(=O)N2CCC(=C(c3ccccc3)c3nnc(C)o3)CC2)c(OC)c1 (centres unmarked)	< 1000
CC(Oc1cccc2cccnc12)C(=O)N1CCC(=C(C#N)c2ccccc2)CC1 (centres unmarked)	< 1000
